Test results as given in US9695155B2, “Herbicidal substituted pyrimidinyloxy benzene compounds” (E. I. DU PONT DE NEMOURS AND COMPANY, priority 2013, dated 2017).

Tests used:
[1] = test system: barnyardgrass; experiment: Test A preemergence; type: in vivo, Echinochloa crus-galli; conditions: 0 to 100 scale where 0 is no effect and 100 is complete control
Procedure, shortened: (§1)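 Visual injury scored 0–100 (100 = complete control) against untreated controls about 10 days after treatment in a greenhouse. Test chemicals, formulated with surfactant in non-phytotoxic solvent, were sprayed on soil preemergence or on 2-10 cm, one- to two-leaf plants postemergence.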

[2] = test system: pigweed; experiment: Test A preemergence; type: in vivo, Amaranthus retroflexus; conditions: 0 to 100 scale where 0 is no effect and 100 is complete control
Procedure, shortened: as §1

[3] = test system: rice; experiment: Test B flooded paddy test; type: in vivo, Oryza sativa; conditions: Flood, 250 g ai/ha, 0 to 100 scale where 0 is no effect and 100 is complete control
Procedure, shortened: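 Plants at 2-leaf stage; pots flooded to 3 cm above soil and compound applied directly into paddy water, depth held throughout. After 13 to 15 days in greenhouse, visual rating versus controls on 0 (no effect) to 100 (complete control) scale.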

[4] = test system: giant foxtail; experiment: Test C preemergence; type: in vivo, Setaria faberii
Procedure, shortened: (§2)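 Seeds were sown in loam–sand blend and sprayed preemergence, while plants at 1- to 4-leaf stage (2–18 cm) in peat-based medium received postemergence sprays; test chemicals were formulated in a non-phytotoxic solvent with surfactant. After 13–15 days in a greenhouse, injury was rated visually against controls, 0 (no effect) to 100 (complete control).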

[5] = test system: yellow nutsedge; experiment: Test C preemergence; type: in vivo, Cyperus esculentus; conditions: preemergence
Procedure, shortened: as §2

[6] = test system: Italian ryegrass; experiment: Test C postemergence; type: in vivo, Lolium multiflorum
Procedure, shortened: as §2

[7] = test system: large (Lg) crabgrass; experiment: Test C postemergence; type: in vivo, Digitaria sanguinalis
Procedure, shortened: as §2

[8] = test system: lambsquarters; experiment: Test C postemergence; type: in vivo, Chenopodium album
Procedure, shortened: as §2

[9] = test system: morningglory; experiment: Test C postemergence; type: in vivo, Ipomoea coccinea
Procedure, shortened: as §2

[10] = test system: ragweed; experiment: Test C postemergence; type: in vivo, Ambrosia elatior
Procedure, shortened: as §2

[11] = test system: oilseed rape; experiment: Test C postemergence; type: in vivo, Brassica napus
Procedure, shortened: as §2

[12] = test system: wild oat; experiment: Test C postemergence; type: in vivo, Avena fatua
Procedure, shortened: as §2

[13] = 16 g ai/ha, postemergence, 0 is no effect, 100 is complete control
[14] = 125 g ai/ha, postemergence, visual rating, scale 0 to 100 (0 no effect, 100 complete control)
[15] = Postemergence, 62 g ai/ha, scale 0 to 100 (0 no effect, 100 complete control)

In the case of `Cc1cnc(Oc2cccc(C#N)c2-n2cc(I)cn2)nc1` [Compound 136], the “Plant response rating, Barnyardgrass” value ([1]; 125 g ai/ha) is reported as 60, the “Barnyardgrass plant response rating” value ([1]; 500 g ai/ha) is reported as 100 and the “Plant response rating, Pigweed” value ([2]; 125 g ai/ha) is reported as 90. For the same molecule, the “Pigweed plant response rating” value ([2]; 500 g ai/ha) was 100, the “Plant response rating, Rice” value [3] was 15 and the “Foxtail, Giant plant response rating” value ([4]; 16 g ai/ha, preemergence, scale 0 to 100 (0 no effect, 100 complete control)) was 0. The “Foxtail, Giant plant response rating” value ([4]; 62 g ai/ha, preemergence, scale 0 (no effect) to 100 (complete control)) was 80, the “Foxtail, Giant plant response rating” value ([4]; 125 g ai/ha, preemergence, scale 0 (no effect) to 100 (complete control)) was 100 and the “Plant response rating, Foxtail, Giant” value ([4]; Preemergence, 31 g ai/ha, scale 0 to 100, 0 no effect, 100 complete control) was 5. For the same molecule, the “Nutsedge, Yellow plant response rating” value ([5]; 16 g ai/ha, scale 0 to 100 (0 no effect, 100 complete control)) was 0, the “Nutsedge, Yellow plant response rating” value ([5]; 62 g ai/ha, scale 0 (no effect) to 100 (complete control)) was 10 and the “Nutsedge, Yellow plant response rating” value ([5]; 125 g ai/ha, scale 0 (no effect) to 100 (complete control)) was 35. For the same molecule, the “Plant response rating (0 to 100), Ryegrass, Italian” value [6, 13] was 0, the “Plant response rating, Ryegrass, Italian” value [6, 14] was 0 and the “Plant response rating, Ryegrass, Italian” value [6, 15] was 0. For the same molecule, the “Plant response rating (0 to 100), Crabgrass, Large” value [7, 13] was 5, the “Plant response rating, Crabgrass, Large” value [7, 14] was 15 and the “Plant response rating, Crabgrass, Large” value [7, 15] was 5. The “Plant response rating (0 to 100), Lambsquarters” value [8, 13] was 20, the “Plant response rating, Lambsquarters” value [8, 14] was 75 and the “Plant response rating, Lambsquarters” value [8, 15] was 60. For the same molecule, the “Plant response rating (0 to 100), Morningglory” value [9, 13] was 5, the “Plant response rating, Morningglory” value [9, 14] was 40 and the “Plant response rating, Morningglory” value [9, 15] was 50. The “Plant response rating (0 to 100), Ragweed” value [10, 13] was 25, the “Plant response rating, Ragweed” value [10, 14] was 45 and the “Plant response rating, Ragweed” value [10, 15] was 45. For the same molecule, the “Plant response rating (0 to 100), Oilseed Rape” value [11, 13] was 0, the “Plant response rating, Oilseed Rape” value [11, 14] was 5 and the “Plant response rating, Oilseed Rape” value [11, 15] was 5. For the same molecule, the “Plant response rating (0 to 100), Oat, Wild” value [12, 13] was 0, the “Plant response rating, Oat, Wild” value [12, 14] was 5 and the “Plant response rating, Oat, Wild” value [12, 15] was 5.

`FC(F)(F)COc1cnn(-c2ccccc2Oc2ncc(Cl)cn2)c1` [Compound 138, 5-chloro-2-[2-[4-(2,2,2-trifluoroethoxy)-1H-pyrazol-1-yl]phenoxy]pyrimidine] was tested, and the pest or weed control at 125 g/ha ([1]; Echinochloa crus-galli, pre-emergence, 240 h, 125 g ai/ha, read-out: Plant response rating, Barnyardgrass) was 80%, the pest or weed control at 500 g/ha ([1]; Echinochloa crus-galli, pre-emergence, 240 h, 500 g ai/ha, read-out: Barnyardgrass plant response rating) was 100% and the pest or weed control at 125 g/ha ([2]; Amaranthus retroflexus, pre-emergence, 125 g ai/ha, read-out: Plant response rating, Pigweed) was 90%. It also gave a pest or weed control at 500 g/ha ([2]; Amaranthus retroflexus, pre-emergence, 240 h, 500 g ai/ha, read-out: Pigweed plant response rating) of 100%, a plant injury at 250 g/ha ([3]; Oryza sativa, read-out: Plant response rating, Rice) of 0% and a pest or weed control at 16 g/ha ([4]; Setaria faberi, pre-emergence, 16 g ai/ha, preemergence, scale 0 to 100 (0 no effect, 100 complete control), read-out: Foxtail, Giant plant response rating) of 30%. For the same molecule, the pest or weed control at 62 g/ha ([4]; Setaria faberi, pre-emergence, 62 g ai/ha, preemergence, scale 0 (no effect) to 100 (complete control), read-out: Foxtail, Giant plant response rating) was 100%, the pest or weed control at 125 g/ha ([4]; Setaria faberi, pre-emergence, 125 g ai/ha, preemergence, scale 0 (no effect) to 100 (complete control), read-out: Foxtail, Giant plant response rating) was 100% and the pest or weed control at 31 g/ha ([4]; Setaria faberi, pre-emergence, Preemergence, 31 g ai/ha, scale 0 to 100, 0 no effect, 100 complete control, read-out: Plant response rating, Foxtail, Giant) was 90%. The pest or weed control at 16 g/ha ([5]; Cyperus, pre-emergence, 16 g ai/ha, scale 0 to 100 (0 no effect, 100 complete control), read-out: Nutsedge, Yellow plant response rating) was 5%, the pest or weed control at 62 g/ha ([5]; Cyperus, pre-emergence, 62 g ai/ha, scale 0 (no effect) to 100 (complete control), read-out: Nutsedge, Yellow plant response rating) was 25% and the pest or weed control at 125 g/ha ([5]; Cyperus, pre-emergence, 125 g ai/ha, scale 0 (no effect) to 100 (complete control), read-out: Nutsedge, Yellow plant response rating) was 55%. It also gave a pest or weed control at 16 g/ha ([6]; Lolium multiflorum, post-emergence, 16 g ai/ha, postemergence, 0 is no effect, 100 is complete control, read-out: Plant response rating (0 to 100), Ryegrass, Italian) of 0%, a pest or weed control at 125 g/ha ([6]; Lolium multiflorum, post-emergence, 125 g ai/ha, postemergence, visual rating, scale 0 to 100 (0 no effect, 100 complete control), read-out: Plant response rating, Ryegrass, Italian) of 5% and a pest or weed control at 62 g/ha ([6]; Lolium multiflorum, post-emergence, Postemergence, 62 g ai/ha, scale 0 to 100 (0 no effect, 100 complete control), read-out: Plant response rating, Ryegrass, Italian) of 0%. For the same molecule, the pest or weed control at 16 g/ha ([7]; Digitaria sanguinalis, post-emergence, 16 g ai/ha, postemergence, 0 is no effect, 100 is complete control, read-out: Plant response rating (0 to 100), Crabgrass, Large) was 10%, the pest or weed control at 125 g/ha ([7]; Digitaria sanguinalis, post-emergence, 125 g ai/ha, postemergence, visual rating, scale 0 to 100 (0 no effect, 100 complete control), read-out: Plant response rating, Crabgrass, Large) was 15% and the pest or weed control at 62 g/ha ([7]; Digitaria sanguinalis, post-emergence, Postemergence, 62 g ai/ha, scale 0 to 100 (0 no effect, 100 complete control), read-out: Plant response rating, Crabgrass, Large) was 15%. It also gave a pest or weed control at 16 g/ha ([8]; Chenopodium album, post-emergence, 16 g ai/ha, postemergence, 0 is no effect, 100 is complete control, read-out: Plant response rating (0 to 100), Lambsquarters) of 20%, a pest or weed control at 125 g/ha ([8]; Chenopodium album, post-emergence, 125 g ai/ha, postemergence, visual rating, scale 0 to 100 (0 no effect, 100 complete control), read-out: Plant response rating, Lambsquarters) of 75% and a pest or weed control at 62 g/ha ([8]; Chenopodium album, post-emergence, Postemergence, 62 g ai/ha, scale 0 to 100 (0 no effect, 100 complete control), read-out: Plant response rating, Lambsquarters) of 60%. It also gave a pest or weed control at 16 g/ha ([9]; Ipomoea, post-emergence, 16 g ai/ha, postemergence, 0 is no effect, 100 is complete control, read-out: Plant response rating (0 to 100), Morningglory) of 65%, a pest or weed control at 125 g/ha ([9]; Ipomoea, post-emergence, 125 g ai/ha, postemergence, visual rating, scale 0 to 100 (0 no effect, 100 complete control), read-out: Plant response rating, Morningglory) of 85% and a pest or weed control at 62 g/ha ([9]; Ipomoea, post-emergence, Postemergence, 62 g ai/ha, scale 0 to 100 (0 no effect, 100 complete control), read-out: Plant response rating, Morningglory) of 65%. For the same molecule, the pest or weed control at 16 g/ha ([10]; Ambrosia artemisiifolia, post-emergence, 16 g ai/ha, postemergence, 0 is no effect, 100 is complete control, read-out: Plant response rating (0 to 100), Ragweed) was 40%, the pest or weed control at 125 g/ha ([10]; Ambrosia artemisiifolia, post-emergence, 125 g ai/ha, postemergence, visual rating, scale 0 to 100 (0 no effect, 100 complete control), read-out: Plant response rating, Ragweed) was 45% and the pest or weed control at 62 g/ha ([10]; Ambrosia artemisiifolia, post-emergence, Postemergence, 62 g ai/ha, scale 0 to 100 (0 no effect, 100 complete control), read-out: Plant response rating, Ragweed) was 40%. The plant injury at 16 g/ha ([11]; Brassica napus, post-emergence, 16 g ai/ha, postemergence, 0 is no effect, 100 is complete control, read-out: Plant response rating (0 to 100), Oilseed Rape) was 5%, the plant injury at 125 g/ha ([11]; Brassica napus, post-emergence, 125 g ai/ha, postemergence, visual rating, scale 0 to 100 (0 no effect, 100 complete control), read-out: Plant response rating, Oilseed Rape) was 80% and the plant injury at 62 g/ha ([11]; Brassica napus, post-emergence, Postemergence, 62 g ai/ha, scale 0 to 100 (0 no effect, 100 complete control), read-out: Plant response rating, Oilseed Rape) was 60%. For the same molecule, the pest or weed control at 16 g/ha ([12]; Avena fatua, post-emergence, 16 g ai/ha, postemergence, 0 is no effect, 100 is complete control, read-out: Plant response rating (0 to 100), Oat, Wild) was 5%, the pest or weed control at 125 g/ha ([12]; Avena fatua, post-emergence, 125 g ai/ha, postemergence, visual rating, scale 0 to 100 (0 no effect, 100 complete control), read-out: Plant response rating, Oat, Wild) was 10% and the pest or weed control at 62 g/ha ([12]; Avena fatua, post-emergence, Postemergence, 62 g ai/ha, scale 0 to 100 (0 no effect, 100 complete control), read-out: Plant response rating, Oat, Wild) was 5%.
